US20150173351A1, “MICROCAPSULE” (priority 2012, published 2015)

Assay: Retention rate of the agriculturally active ingredient after xenon light irradiation (photodegradation)
Type: physicochemical
Settings: active ingredient alone, air-dried on glass petri dish; xenon light (290 nm cutoff), 0.68 W/m^2 at 340 nm, 8 hours, 35° C.; weight % relative to 5 mg
Description: A method for the calculation of a retention rate of the agriculturally active ingredient defined above is more specifically as follows. First, 250 mg of the agriculturally active ingredient is dissolved in 50 mL of a solvent such as acetone, which can sufficiently dissolve the agriculturally active ingredient and also has high volatility, and 1 mL of the solution is added to a glass petri dish having a diameter of 6 cm using a one-mark pipette, spread entirely over the petri dish, and then air-dried at room temperature. The petri dish is covered with a lid made of quartz glass and then set in a weathering tester (manufactured by Q-Lab Corporation under the trade name of Q-SUN Xenon Accelerated Weathering Tester, Model Xe-3) equipped with a borosilicate filter (manufactured by Q-Lab Corporation under the trade name of Daylight-BB Optical Filter) attached thereto. After irradiation with xenon light under the conditions of an intensity at 340 nm of 0.68 W/m^2 and a temperature of 35° C. (35° C. as measured by an insulated black panel thermometer) for 8 hours, the amount of the agriculturally active ingredient remaining on the petri dish is determined by a known determination method such as high-performance liquid chromatography. It is possible to determine a retention rate by calculating as the weight percentage relative to 5 mg of the agriculturally active ingredient used above. The above agriculturally active ingredient used in the microcapsule of the present invention may be any of an insecticidally active component, a fungicidally active component, and a herbicidally active component, and is not particularly limited. The agriculturally active ingredient includes fenpyrazamine, allethrin, and prallethrin. […] It is preferred to use an agriculturally active ingredient which is solid at normal temperature (25° C.), for example fenpyrazamine.

| SMILES | retention rate after irradiation with xenon light [%] |
| --- | --- |
| C=CCC1=C(C)C(OC(=O)C2C(C=C(C)C)C2(C)C)CC1=O (stereo not drawn) [allethrin] | 3.3 |
| C=CCSC(=O)n1c(N)c(-c2ccccc2C)c(=O)n1C(C)C [fenpyrazamine] | 28.1 |
| C#CCC1=C(C)C(OC(=O)C2C(C=C(C)C)C2(C)C)CC1=O (stereo not drawn) [prallethrin] | 6.4 |
